From patent publication US20230303570A1, “KINASE INHIBITORS AND USES THEREOF” (ABM Therapeutics Corporation, priority 2020, published 2023) come the findings set out here.

Common to all, as to type: biochemical
One assay deals with T1, SRC (Homo sapiens, UniProt P12931).
T1 construct: purchased Carna Biosciences
Put plainly: In vitro kinase assay, SRC (Caliper EZ Reader conversion). The conditions noted are these: read-out: SRC IC50. The method, then:
(§1) The effect of the compounds on the activity of SRC and PAK1 kinase were assessed. SRC and PAK1 kinase enzymes were obtained from Carna Biosciences.
Test compounds were dissolved in 100% DMSO to prepare a 20 mM stock. Compounds were stored in −20° C. and protected from light. […] Saracatinib was used as a positive control for the SRC assay, and FRAX597 was used as a positive control for the PAK1 assay. For the positive controls, a 3-fold serial dilution was made to achieve a total of 10 concentrations. 10 μL 1× Kinase buffer was used as the negative control.
First, 250 nL of the compounds at each dilution were transferred into wells of a 384-well plate. […] Then, 10 μL of enzyme mix was added to the 384-well plate, and the enzymes and compounds were pre-incubated at room temperature for 10 minutes. […] Then, 15 μL of substrate mix was added to a 384-well plate and reacted at room temperature for 30 min and 60 min. The reaction was stopped by adding 30 μL of the stop buffer, and the conversion rate was read using a Caliper EZ Reader.
(§2) Percent inhibition is calculated according to the following equation: […]
(§3) wherein “Conversion %_sample” is the conversion percentage value of the sample; “Conversion %_min” is the average conversion percentage value of the negative control; and “Conversion %_max” is the average conversion percentage value of the positive control.
(§4) The dose-response curve was fitted using GraphPad Prism software (version 5, […]), and the IC50 values for each compounds were calculated by log(inhibitor) vs. response using a variable slope program with the following formula:
(§5) Y=Bottom+(Top-Bottom)/(1+10^((Log IC50−X)*HillSlope))

In the next assay the target is PAK1 (Homo sapiens, UniProt Q13153). Put plainly: In vitro kinase assay, PAK1 (Caliper EZ Reader conversion). Details: purchased Carna Biosciences. The method, then:
as §1
Test compounds were dissolved in 100% DMSO to prepare a 20 mM stock. Compounds were stored in −20° C. and protected from light. A 100×solution of the compounds were prepared, from which 4-fold serial dilutions was made to achieve a total of 6 concentrations. Saracatinib was used as a positive control for the SRC assay, and FRAX597 was used as a positive control for the PAK1 assay. For the positive controls, a 3-fold serial dilution was made to achieve a total of 10 concentrations. 10 μL 1× Kinase buffer was used as the negative control.
First, 250 nL of the compounds at each dilution were transferred into wells of a 384-well plate. The PAK1 and SRC kinases were diluted to a 2.5×final concentration with 1×Kinase buffer. Then, 10 μL of enzyme mix was added to the 384-well plate, and the enzymes and compounds were pre-incubated at room temperature for 10 minutes. […] Then, 15 μL of substrate mix was added to a 384-well plate and reacted at room temperature for 30 min and 60 min. The reaction was stopped by adding 30 μL of the stop buffer, and the conversion rate was read using a Caliper EZ Reader.
as §2, §3, §4, §5

In the next assay the target is HPK1 (MAP4K1) (Homo sapiens, UniProt Q92918). Briefly: HPK1 (MAP4K1) kinase Lantha screen assay. Put shortly:
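Recombinant MAP4K1 preincubated 10 min with compound (6-point dilution, duplicates) in 50 mM HEPES pH 7.5, 10 mM MgCl2, then reacted with Fluorescein-PKC substrate and ATP for 90 min at room temperature. Antibody detection solution stopped reaction; after 60 min, TR-FRET read at ex 340 nm, em 520/495 nm.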

Molecules are shown by their SMILES.

Sequence of HPK1 (MAP4K1) (Q92918 whole entry, species assumed): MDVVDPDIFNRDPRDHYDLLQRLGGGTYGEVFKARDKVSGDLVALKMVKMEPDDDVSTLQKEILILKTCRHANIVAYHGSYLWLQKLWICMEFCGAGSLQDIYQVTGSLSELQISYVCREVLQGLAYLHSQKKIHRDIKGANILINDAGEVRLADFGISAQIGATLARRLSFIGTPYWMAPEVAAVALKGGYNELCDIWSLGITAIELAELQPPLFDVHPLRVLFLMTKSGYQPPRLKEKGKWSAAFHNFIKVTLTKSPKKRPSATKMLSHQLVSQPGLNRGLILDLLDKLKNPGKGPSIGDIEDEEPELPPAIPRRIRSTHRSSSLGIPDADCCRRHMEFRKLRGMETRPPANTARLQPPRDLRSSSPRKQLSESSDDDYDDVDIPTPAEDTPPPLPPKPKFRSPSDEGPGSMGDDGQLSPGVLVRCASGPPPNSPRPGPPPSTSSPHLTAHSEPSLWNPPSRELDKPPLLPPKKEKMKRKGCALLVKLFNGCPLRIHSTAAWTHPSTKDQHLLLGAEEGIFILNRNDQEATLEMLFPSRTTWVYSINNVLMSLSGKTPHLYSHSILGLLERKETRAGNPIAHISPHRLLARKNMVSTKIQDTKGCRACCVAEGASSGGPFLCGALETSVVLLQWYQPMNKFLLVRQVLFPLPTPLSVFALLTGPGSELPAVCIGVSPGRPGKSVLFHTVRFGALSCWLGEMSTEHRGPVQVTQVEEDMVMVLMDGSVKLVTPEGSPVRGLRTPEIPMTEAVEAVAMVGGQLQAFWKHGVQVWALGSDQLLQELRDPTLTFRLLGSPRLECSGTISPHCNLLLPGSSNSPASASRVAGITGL
T1 sequence (P12931 whole entry): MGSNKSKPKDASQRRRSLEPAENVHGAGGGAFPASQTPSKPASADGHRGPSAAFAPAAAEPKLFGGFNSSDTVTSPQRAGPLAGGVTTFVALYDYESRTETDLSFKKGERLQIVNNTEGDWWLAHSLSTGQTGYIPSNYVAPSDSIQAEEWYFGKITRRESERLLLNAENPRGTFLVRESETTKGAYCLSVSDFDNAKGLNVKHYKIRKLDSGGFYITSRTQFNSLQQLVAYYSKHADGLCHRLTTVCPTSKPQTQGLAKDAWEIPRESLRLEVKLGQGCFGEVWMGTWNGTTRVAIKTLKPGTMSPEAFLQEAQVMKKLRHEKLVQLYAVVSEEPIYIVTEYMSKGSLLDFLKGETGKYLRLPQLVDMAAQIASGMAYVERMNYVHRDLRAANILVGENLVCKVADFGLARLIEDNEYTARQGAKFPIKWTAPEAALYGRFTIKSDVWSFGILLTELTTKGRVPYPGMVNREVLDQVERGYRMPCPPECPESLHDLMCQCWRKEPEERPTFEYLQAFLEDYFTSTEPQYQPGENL
Sequence of PAK1 (Q13153 whole entry): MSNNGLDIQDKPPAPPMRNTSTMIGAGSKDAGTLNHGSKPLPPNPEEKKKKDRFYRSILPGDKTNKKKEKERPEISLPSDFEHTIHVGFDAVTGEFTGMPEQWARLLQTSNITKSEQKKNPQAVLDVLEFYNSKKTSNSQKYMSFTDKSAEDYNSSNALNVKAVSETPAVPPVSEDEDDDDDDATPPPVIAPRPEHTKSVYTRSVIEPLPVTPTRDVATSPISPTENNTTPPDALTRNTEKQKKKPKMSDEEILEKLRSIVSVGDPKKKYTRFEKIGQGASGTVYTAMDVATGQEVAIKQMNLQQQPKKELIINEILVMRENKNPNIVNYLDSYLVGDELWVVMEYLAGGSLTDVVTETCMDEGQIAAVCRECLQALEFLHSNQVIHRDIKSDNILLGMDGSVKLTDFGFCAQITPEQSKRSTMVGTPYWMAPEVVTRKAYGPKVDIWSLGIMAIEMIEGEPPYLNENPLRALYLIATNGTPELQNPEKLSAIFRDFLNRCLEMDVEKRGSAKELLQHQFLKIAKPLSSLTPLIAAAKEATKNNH

For the compound `C1=C(c2ccccc2)C2=NCCCN2c2nc(Nc3ccncc3)ncc21` [Compound 53, 6-phenyl-N-(pyridin-4-yl)-9,10-dihydro-8H-pyrido[1,6-a:2,3-d′]dipyrimidin-2-amine], at SRC, the IC50 is greater than 10 µM.

Turning to `Clc1cccc(Cl)c1C1=Cc2cnc(N3CCN(c4ccncc4)CC3)nc2N2CCN=C12` [Compound 51, 6-(2,6-dichlorophenyl)-2-(4-(pyridin-4-yl)piperazin-1-yl)-8,9-dihydroimidazo[1′,2′:1,6]pyrido[2,3-d]pyrimidine], the IC50 on SRC is 0.1 to 10 µM.

Consider `Clc1ccccc1C1=Cc2cnc(Nc3ccncc3)nc2N2CCCN=C12` [Compound 54, 6-(2-chlorophenyl)-N-(pyridin-4-yl)-9,10-dihydro-8H-pyrido[1,6-a:2,3-d′]dipyrimidin-2-amine], for which the IC50 on SRC is greater than 10 µM.

On to `COc1cccc(Nc2ncc3c(n2)N2CCCN=C2C(c2ccccc2Cl)=C3)c1` [Compound 60, 6-(2-chlorophenyl)-N-(3-methoxyphenyl)-9,10-dihydro-8H-pyrido[1,6-a:2,3-d′]dipyrimidin-2-amine], for which the IC50 at SRC lay in the range of 0.1 to 10 µM.

Regarding `COc1nc(N2CCNCC2)ccc1Nc1ncc2c(n1)N1CCN=C1C(c1ccc(C)cc1)=C2` [Compound 38, N-(2-methoxy-6-(piperazin-1-yl)pyridin-3-yl)-6-(p-tolyl)-8,9-dihydroimidazo[1′,2′:1,6]pyrido[2,3-d]pyrimidin-2-amine], the IC50 at PAK1 was greater than 10 µM.

As to `Fc1cc(N2CCNCC2)ccc1Nc1ncc2c(n1)N1CCN=C1C(c1ccncc1)=C2` [Compound 34, N-(2-fluoro-4-(piperazin-1-yl)phenyl)-6-(pyridin-4-yl)-8,9-dihydroimidazo[1′,2′:1,6]pyrido[2,3-d]pyrimidin-2-amine], at PAK1, the IC50 was greater than 10 µM.

For `Fc1cc(N2CCNCC2)ccc1Nc1ncc2c(n1)N1CCN=C1C(c1ccccn1)=C2` [Compound 32, N-(2-fluoro-4-(piperazin-1-yl)phenyl)-6-(pyridin-2-yl)-8,9-dihydroimidazo[1′,2′:1,6]pyrido[2,3-d]pyrimidin-2-amine], on PAK1, the IC50 was greater than 10 µM.

As to `Fc1ccccc1Nc1ncc2c(n1)N1CCCN=C1C(c1ccccc1)=C2` [Compound 56, N-(2-fluorophenyl)-6-phenyl-9,10-dihydro-8H-pyrido[1,6-a:2,3-d′]dipyrimidin-2-amine], at SRC, the IC50 was greater than 10 µM.

With `CCN1CCN(c2ccc(Nc3ncc4c(n3)N3CCN=C3C(c3ccc(Cl)cc3Cl)=C4)c(F)c2)CC1` [Compound 9, 6-(2,4-dichlorophenyl)-N-(4-(4-ethylpiperazin-1-yl)-2-fluorophenyl)-8,9-dihydroimidazo[1′,2′:1,6]pyrido[2,3-d]pyrimidin-2-amine], the IC50 at SRC is less than 0.1 µM.

As for `Fc1cc(N2CCNCC2)ccc1Nc1ncc2c(n1)N1CCN=C1C(c1cscn1)=C2` [Compound 33, N-(2-fluoro-4-(piperazin-1-yl)phenyl)-6-(thiazol-4-yl)-8,9-dihydroimidazo[1′,2′:1,6]pyrido[2,3-d]pyrimidin-2-amine], the IC50 at PAK1 is 0.1 to 10 µM.

As for `Fc1cc(N2CCNCC2)ccc1Nc1ncc2c(n1)N1CCN=C1C=C2` [Compound 10, N-(2-fluoro-4-(piperazin-1-yl)phenyl)-8,9-dihydroimidazo[1′,2′:1,6]pyrido[2,3-d]pyrimidin-2-amine], at SRC, the IC50 was greater than 10 µM.

With `CN1CCN(c2ccc(Nc3ncc4c(n3)N3CCN=C3C(c3ccc(Cl)cc3Cl)=C4)c(F)c2)CC1` [Compound 8, 6-(2,4-dichlorophenyl)-N-(2-fluoro-4-(4-methylpiperazin-1-yl)phenyl)-8,9-dihydroimidazo[1′,2′:1,6]pyrido[2,3-d]pyrimidin-2-amine], the IC50 at SRC was less than 0.1 µM.

Consider `Fc1cnccc1Nc1ncc2c(n1)N1CCCN=C1C(c1ccccc1)=C2` [Compound 55, N-(3-fluoropyridin-4-yl)-6-phenyl-9,10-dihydro-8H-pyrido[1,6-a:2,3-d′]dipyrimidin-2-amine], for which the IC50 at SRC is greater than 10 µM.

As for `COc1nc(N2CCNCC2)ccc1Nc1ncc2c(n1)N1CCN=C1C(c1ccncc1)=C2` [Compound 41, N-(2-methoxy-6-(piperazin-1-yl)pyridin-3-yl)-6-(pyridin-4-yl)-8,9-dihydroimidazo[1′,2′:1,6]pyrido[2,3-d]pyrimidin-2-amine], at SRC, the IC50 is greater than 10 µM.

As for `COc1ccccc1Nc1ncc2c(n1)N1CCCN=C1C(c1ccccc1Cl)=C2` [Compound 61, 6-(2-chlorophenyl)-N-(2-methoxyphenyl)-9,10-dihydro-8H-pyrido[1,6-a:2,3-d′]dipyrimidin-2-amine], the IC50 at SRC was in the range of 0.1 to 10 µM.

For `Cc1ccc(NC(=O)c2cc(C(F)(F)F)ccn2)cc1C1=Cc2cnc(N)nc2N2CCCN=C12` [Compound 76, N-(3-(2-amino-9,10-dihydro-8H-pyrido[1,6-a:2,3-d′]dipyrimidin-6-yl)-4-methylphenyl)-4-(trifluoromethyl)picolinamide], the IC50 on SRC was in the range of 0.1 to 10 µM.

`CNc1ncc2c(n1)N1CCN=C1C(c1cc(NC(=O)c3ccnc(C(F)(F)F)c3)ccc1C)=C2` [Compound 145, N-(4-methyl-3-(2-(methylamino)-8,9-dihydroimidazo[1′,2′:1,6]pyrido[2,3-d]pyrimidin-6-yl)phenyl)-2-(trifluoromethyl)isonicotinamide]: the IC50 against HPK1 (MAP4K1) was in the range of 0.1 to 10 µM.

For `Cc1ccc(NC(=O)c2cc(C(F)(F)F)ccn2)cc1C1=Cc2cnc(Nc3ccncc3F)nc2N2CCN=C12` [Compound 219, N-(3-(2-((3-fluoropyridin-4-yl)amino)-8,9-dihydroimidazo[1′,2′:1,6]pyrido[2,3-d]pyrimidin-6-yl)-4-methylphenyl)-4-(trifluoromethyl)picolinamide], the IC50 at HPK1 (MAP4K1) fell in the range of 0.1 to 10 µM.

With `CNc1ncc2c(n1)N1CCN=C1C(c1cc(NC(=O)c3cccc(C(C)(C)C#N)c3)ccc1C)=C2` [Compound 161, 3-(2-cyanopropan-2-yl)-N-(4-methyl-3-(2-(methylamino)-8,9-dihydroimidazo[1′,2′:1,6]pyrido[2,3-d]pyrimidin-6-yl)phenyl)benzamide], the IC50 on HPK1 (MAP4K1) was less than 0.1 µM.

Consider `CCNc1ncc2c(n1)N1CCCN=C1C(c1c(C)ccc3[nH]ncc13)=C2` [Compound 66, N-ethyl-6-(5-methyl-1H-indazol-4-yl)-9,10-dihydro-8H-pyrido[1,6-a:2,3-d′]dipyrimidin-2-amine], for which, at SRC, the IC50 is 0.1 to 10 µM.

For the compound `COc1ccncc1Nc1ncc2c(n1)N1CCN=C1C(c1cc(NC(=O)c3cc(C(F)(F)F)ccn3)ccc1C)=C2` [Compound 223, N-(3-(2-((4-methoxypyridin-3-yl)amino)-8,9-dihydroimidazo[1′,2′:1,6]pyrido[2,3-d]pyrimidin-6-yl)-4-methylphenyl)-4-(trifluoromethyl)picolinamide], the IC50 at HPK1 (MAP4K1) was 0.1 to 10 µM.

In the case of `Oc1ccncc1Nc1ncc2c(n1)N1CCCN=C1C(c1ccccc1Cl)=C2` [Compound 67, 3-((6-(2-chlorophenyl)-9,10-dihydro-8H-pyrido[1,6-a:2,3-d′]dipyrimidin-2-yl)amino)pyridin-4-ol], the IC50 at SRC is greater than 10 µM.

As to `Cc1ccc(NC(=O)c2cc(C(F)(F)F)ccn2)cc1C1=Cc2cnc(Nc3ccccn3)nc2N2CCN=C12` [Compound 216, N-(4-methyl-3-(2-(pyridin-2-ylamino)-8,9-dihydroimidazo[1′,2′:1,6]pyrido[2,3-d]pyrimidin-6-yl)phenyl)-4-(trifluoromethyl)picolinamide], the IC50 on HPK1 (MAP4K1) is 0.1 to 10 µM.

Take `Cc1ccc(Nc2ncc3c(n2)N2CCN=C2C(c2cc(NC(=O)c4cc(C(F)(F)F)ccn4)ccc2C)=C3)c(C)n1` [Compound 211, N-(3-(2-((2,6-dimethylpyridin-3-yl)amino)-8,9-dihydroimidazo[1′,2′:1,6]pyrido[2,3-d]pyrimidin-6-yl)-4-methylphenyl)-4-(trifluoromethyl)picolinamide]: the IC50 against HPK1 (MAP4K1) is less than 0.1 µM.

For `COc1ccc(Nc2ncc3c(n2)N2CCN=C2C(c2cc(NC(=O)c4cc(C(F)(F)F)ccn4)ccc2C)=C3)cn1` [Compound 221, N-(3-(2-((6-methoxypyridin-3-yl)amino)-8,9-dihydroimidazo[1′,2′:1,6]pyrido[2,3-d]pyrimidin-6-yl)-4-methylphenyl)-4-(trifluoromethyl)picolinamide], the IC50 at HPK1 (MAP4K1) was less than 0.1 µM.

As usually defined, the IC50 is the concentration that gives 50% inhibition.
